Test results: PubChem BioAssay AID1963874 (Molecular Pharmacology Branch, DTP, NCI, 2024)

Tested on: 253994-281-T-J1-PDC KRAS-mutant spheroids with HUVEC/MSC, viability
Assay: Anticancer human tumor 253994-281-T-J1-PDC patient-derived colorectal carcinoma cell line growth inhibition [KRAS2]
Settings: for IC50: curve of first compound; for viability, T/C: stronger effect = lower value
Outline: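 KRAS-mutant tumor cells were grown as spheroids with HUVEC endothelial cells and human MSCs as stroma. Targeted agents were tested alone and with KRAS pathway inhibitors. Doses started at or near clinical Cmax, or 10 microM, descending half-log.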
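Further: spheroids exposed to agents for seven days before readout.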
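Wherever viability, T/C is given: percent of DMSO vehicle control viability.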

`CC(=O)Nc1cccc(-n2c(=O)n(C3CC3)c(=O)c3c(Nc4ccc(I)cc4F)n(C)c(=O)c(C)c32)c1` + COc1cc2nc(C)nc(NC(C)c3cc(N)cc(C(F)(F)F)c3)c2cc1OC1CCOC1 showed an IC50 (second compound 0.1 µM) of 473 pM, an IC50 (second compound 0.316 µM) of 318 pM and an IC50 (second compound 1 µM) of 331 pM. It also gave an IC50 (second compound 3.16 µM) of 154 pM, an IC50 (second compound 10 µM) of 173 pM and a viability, T/C (second compound 0.1 µM, first compound 0.0001 µM) of 82.8%. It also gave a viability, T/C (second compound 0.1 µM, first compound 0.000316 µM) of 60.4%, a viability, T/C (second compound 0.1 µM, first compound 0.001 µM) of 30.9% and a viability, T/C (second compound 0.1 µM, first compound 0.00316 µM) of 14.4%. The viability, T/C (second compound 0.1 µM, first compound 0.01 µM) was 10.5%, the viability, T/C (second compound 0.1 µM, first compound 0.0316 µM) was 5.47% and the viability, T/C (second compound 0.316 µM, first compound 0.0001 µM) was 68%. For the same compound, the viability, T/C (second compound 0.316 µM, first compound 0.000316 µM) was 50.7%, the viability, T/C (second compound 0.316 µM, first compound 0.001 µM) was 27.9% and the viability, T/C (second compound 0.316 µM, first compound 0.00316 µM) was 14.8%. For the same compound, the viability, T/C (second compound 0.316 µM, first compound 0.01 µM) was 10.7%, the viability, T/C (second compound 0.316 µM, first compound 0.0316 µM) was 5.1% and the viability, T/C (second compound 1 µM, first compound 0.0001 µM) was 59.9%. For the same compound, the viability, T/C (second compound 1 µM, first compound 0.000316 µM) was 51.7%, the viability, T/C (second compound 1 µM, first compound 0.001 µM) was 23.5% and the viability, T/C (second compound 1 µM, first compound 0.00316 µM) was 11.6%. It also gave a viability, T/C (second compound 1 µM, first compound 0.01 µM) of 9.28%, a viability, T/C (second compound 1 µM, first compound 0.0316 µM) of 4.8% and a viability, T/C (second compound 3.16 µM, first compound 0.0001 µM) of 59.7%. The viability, T/C (second compound 3.16 µM, first compound 0.000316 µM) was 34%, the viability, T/C (second compound 3.16 µM, first compound 0.001 µM) was 20.2% and the viability, T/C (second compound 3.16 µM, first compound 0.00316 µM) was 10.6%. It also gave a viability, T/C (second compound 3.16 µM, first compound 0.01 µM) of 8.21%, a viability, T/C (second compound 3.16 µM, first compound 0.0316 µM) of 4.13% and a viability, T/C (second compound 10 µM, first compound 0.0001 µM) of 74.6%. The viability, T/C (second compound 10 µM, first compound 0.000316 µM) was 21.5%, the viability, T/C (second compound 10 µM, first compound 0.001 µM) was 13.6% and the viability, T/C (second compound 10 µM, first compound 0.00316 µM) was 8.98%. It also gave a viability, T/C (second compound 10 µM, first compound 0.01 µM) of 5.81% and a viability, T/C (second compound 10 µM, first compound 0.0316 µM) of 2.33%.
